This is an account of results in article PMC9220410, “Antiamoebic Properties of Laboratory and Clinically Used Drugs against Naegleria fowleri and Balamuthia mandrillaris” (Antibiotics, 2022).

The subject of one data set is N. fowleri trophozoites. Description: Amoebicidal assay against N. fowleri trophozoites (Trypan blue). The format is cell-based, Naegleria fowleri. The following applies: for minimal effective concentration / EC50: Naegleria fowleri; for minimal effective concentration: compared to solvent control, p < 0.05, 24 h, read-out: Lowest concentration showing significant amoebicidal activity against N. fowleri; for EC50: trophozoites, 24 h, Trypan blue, read-out: Half maximal effective concentration (EC50), N. fowleri; for Amoebicidal activity against N. fowleri: summary in discussion, concentration not given. The method, then:
(§1) Amoebicidal assays were performed as previously described. Briefly, 5 × 10^5 amoebae (N. fowleri and B. mandrillaris cells) were incubated with drugs and/or solvents in 24-well plates in RPMI-1640. Amoebae were incubated with RPMI-1640 for negative controls while DMSO and ethanol were used as solvent control. For the positive control, the anti-amoebic drug, 100 μM miltefosine was used. Plates were incubated at 37 °C and 5% CO2 for 24 h. Next, 0.1% Trypan blue was added to each well. […] The number of live cells (i.e., unstained) was counted using a haemocytometer to determine amoebicidal effects of various compounds. The data are representative of the mean ± standard error of several experiments performed in duplicate.
Figure 1 The amoebicidal activities of compounds against N. fowleri trophozoites. N. fowleri trophozoites were incubated with various concentrations of compounds for 24 h and trophozoites viability was determined using Trypan blue. Percentage amoebicidal activity was calculated by: [((RPMI cell count − cell count for sample)/RPMI cell count) × 100)]. The activities of solvents alone were negated from the activities of the compounds. The data is presented as the mean ± standard error (*: p < 0.05, **: p < 0.01, ***: p < 0.001 using student t-test; two tailed distribution).

The subject of data set [1] is B. mandrillaris trophozoites. Description: Amoebicidal assay against B. mandrillaris trophozoites (Trypan blue). The format is cell-based, Balamuthia mandrillaris. The following applies: for EC50: Balamuthia mandrillaris, trophozoites, 24 h, Trypan blue, read-out: Half maximal effective concentration (EC50), B. mandrillaris; for Amoebicidal activity against B. mandrillaris: summary in discussion, concentration not given. The method, then:
as §1
Figure 2 The amoebicidal activities of compounds against B. mandrillaris trophozoites. B. mandrillaris trophozoites were incubated with various concentrations of compounds for 24 h and trophozoites viability was determined using Trypan blue. Percentage amoebicidal activity was calculated by: [((RPMI cell count − cell count for sample)/RPMI cell count) × 100)]. The activities of solvents alone were negated from the activities of the compounds. The data is presented as the mean ± standard error (*: p < 0.05, **: p < 0.01, ***: p < 0.001 using student t-test; two tailed distribution).

The next data set relates to N. fowleri cysts. Description: Excystation assay, N. fowleri cysts. The data set is classed as cell-based, Naegleria fowleri. As to conditions: 100 μM, after negating effects of solvent alone; for inhibition at 100 µM: Naegleria fowleri, read-out: Inhibition of excystation of N. fowleri. The method, then: (§2) Briefly, 5 × 10^5 amoebae cysts (N. fowleri and B. mandrillaris cells) were incubated with 100 μM drugs and/or solvent in 24-well plates containing RPMI-1640 on HeLa monolayers at 37 °C and 5% CO2 until around 75% of the cysts in RPMI-1640 alone have excysted. The RPMI-1640 alone was used as a negative control while DMSO and ethanol were used as a solvent control and 100 μM miltefosine was used as positive control. Live trophozoites (amoebae that excysted) were then quantified by counting live (unstained) cells, after addition of 0.1% Trypan blue to each well, using a haemocytometer. Percentage inhibition is defined as: [(Number of trophozoites in untreated well − Number of trophozoites in treated well)/Number of trophozoites in untreated well)] × 100. The data are representative of the mean ± standard error of several independent experiments performed in duplicate.
(§3) Figure 3 (A) Inhibition of excystation of N. fowleri cysts. N. fowleri cysts were incubated with 100 μM drugs and/or solvent in 24-well plates containing RPMI-1640 on HeLa monolayers for 24 h and number of viable trophozoites were then enumerated. Percentage inhibition of excystation was calculated by: [((RPMI trophozoite cell count − trophozoite cell count for sample)/RPMI trophozoite cell count) × 100)]. The activities of solvents alone were negated from the activities of the compounds. The data is presented as the mean ± standard error (*: p ˂ 0.05, **: p < 0.01, ***: p < 0.001 using student t-test; two tailed distribution). (B) Inhibition of excystation of B. mandrillaris cysts. B. mandrillaris cysts were incubated with 100 μM drugs and/or solvent in 24-well plates containing RPMI-1640 on HeLa monolayers for 24 h and number of viable trophozoites were then enumerated. Percentage inhibition of excystation was calculated by: [((RPMI trophozoite cell count − trophozoite cell count for sample)/RPMI trophozoite cell count) × 100)]. The activities of solvents alone were negated from the activities of the compounds. The data is presented as the mean ± standard error (*: p ˂ 0.05, **: p < 0.01, ***: p < 0.001 using student t-test; two tailed distribution).

For another data set, the system named is B. mandrillaris cysts. Kind of data set: Excystation assay, B. mandrillaris cysts. The following applies: Balamuthia mandrillaris; 100 μM, after negating effects of solvent alone; read-out: Inhibition of excystation of B. mandrillaris. The data set is classed as cell-based. The method, then:
as §2, §3

The test system of a further data set is HaCaT cells. The data set is classed as cell-based, human. As to conditions: LDH release, 24 h, concentration not given. The method, then: Cytotoxic effects of the drugs were determined as previously described^21. Briefly, the cytotoxic activity of the drugs was investigated against HaCaT cells. […] The LDH assay protocol is based on an enzymatic reaction, i.e., LDH released from the cell oxidizes lactate to generate NADH, which then reacts with water-soluble tetrazolium salt (WST) to generate a yellow color. The intensity of the generated color correlates directly with the number of lyzed cells. Following this, 1% Triton X-100 was added to the positive control well and incubated the plate for 60 min at 37 °C. For negative control, human cells were grown in RPMI alone well. Then, an equal amount of cells supernatant (comprising LDH enzyme) from each well was combined with equal amount of LDH kit reagents and cytotoxicity was determined in proportion to LDH released from human cells using a spectrophotometer at 490 nm. The percentage LDH released was determined as follows: [(Absorbance of sample − Absorbance of control)/(Absorbance for total LDH release − Absorbance of control)] × 100 = percentage cytotoxicity.
Figure 4 Cytotoxic effects of compounds against human cells are depicted. Various concentrations of compounds were incubated with human cells for 24 h at 37 °C and 5% CO2. RPMI alone was used as negative control and triton X-100 was used as positive control. Data are presented as the mean ± standard error of 2 experiments conducted in duplicates.

On the set-up of data set [2]: method as in PMID 29206032, PMID 32548431. As to conditions: ref [24],[25],[26]; cited from earlier work.

`CCC1=C(C)CN(C(=O)NCCc2ccc(S(=O)(=O)NC(=O)NC3CCC(C)CC3)cc2)C1=O` (stereo not shown) [Glimepiride, 4-ethyl-3-methyl-N-[2-[4-[(4-methylcyclohexyl)carbamoylsulfamoyl]phenyl]ethyl]-5-oxo-2H-pyrrole-1-carboxamide]: in the data set on N. fowleri trophozoites, the minimal effective concentration was 12.5 µM, the EC50 was determined as 5.2 µM and the “Amoebicidal activity against N. fowleri” value was 92%. For the same molecule, in data set [1], the EC50 was found to be 63.6 µM and the “Amoebicidal activity against B. mandrillaris” value is 54%. Moreover, in the data set on N. fowleri cysts, the inhibition at 100 µM amounted to 53%. For the same molecule, in the data set with B. mandrillaris cysts, the inhibition at 100 µM was below 10%. The “Cytotoxicity against HaCaT cells” value with HaCaT cells stood at 6%. In data set [2], the “BBB Permeability” value is “Positive”.

Take `CC(C)C1CCC(C(=O)N[C@H](Cc2ccccc2)C(=O)O)CC1` (stereo partly drawn) [Nateglinide, (2R)-3-phenyl-2-[(4-propan-2-ylcyclohexanecarbonyl)amino]propanoic acid]: in the data set on N. fowleri trophozoites, the minimal effective concentration is at least 6.25 µM, the EC50 was found to be 44.4 µM and the “Amoebicidal activity against N. fowleri” value worked out at 64%. Further, in data set [1], the EC50 was 136 µM and the “Amoebicidal activity against B. mandrillaris” value stood at 39%. In addition, the inhibition at 100 µM with N. fowleri cysts worked out at 42%. Also, the inhibition at 100 µM in the data set on B. mandrillaris cysts was 57%. In addition, the “Cytotoxicity against HaCaT cells” value in the data set with HaCaT cells was found to be 2%. The “BBB Permeability” value in data set [2] was “Positive”.

For `CCOc1cc(CC(=O)N[C@@H](CC(C)C)c2ccccc2N2CCCCC2)ccc1C(=O)O` [Repaglinide, 2-ethoxy-4-[2-[[(1S)-3-methyl-1-(2-piperidin-1-ylphenyl)butyl]amino]-2-oxoethyl]benzoic acid], the minimal effective concentration in the data set with N. fowleri trophozoites amounted to 50 µM. The results for the EC50 (in the data set with N. fowleri trophozoites; in data set [1]) were 14.3 µM and 31.8 µM, respectively. The values for the inhibition at 100 µM with N. fowleri cysts and with B. mandrillaris cysts were 49% and below 10%, respectively. Moreover, the “Cytotoxicity against HaCaT cells” value in the data set on HaCaT cells was “did not exhibit any cytotoxicity”. The “BBB Permeability” value in data set [2] is recorded as “Negative”.

With `N#C[C@@H]1CCCN1C(=O)CNC12CC3CC(CC(O)(C3)C1)C2` [Vildagliptin, (2S)-1-[2-[(3-hydroxy-1-adamantyl)amino]acetyl]pyrrolidine-2-carbonitrile], in the data set with N. fowleri trophozoites, the minimal effective concentration was at least 3.13 µM and the EC50 was 100 µM. Besides, the “Inhibition of excystation of N. fowleri” value in the data set with N. fowleri cysts is given as “did not inhibit excystation”. In the data set on B. mandrillaris cysts, the inhibition at 100 µM turned out to be 14%. Also, in the data set with HaCaT cells, the “Cytotoxicity against HaCaT cells” value was “did not exhibit any cytotoxicity”. Moreover, the “BBB Permeability” value in data set [2] is on record as “Positive”.

The inhibition is the percentage by which the read-out fell short of the control.
